Experimental data taken from ChEMBL document CHEMBL5042543, “Bridged Piperidine Analogues of a High Affinity Naphthalene-Based P2Y14R Antagonist” (J Med Chem, 2022).
≈ marks a conversion by molar mass, not a printed value.

Legend:
[1] = Distribution coefficient, logD of compound at pH 7.4 by HPLC analysis; assay type: physicochemical; conditions: octanol/water, read-out: logD
[2] = Aqueous solubility of the compound at pH 4
[3] = Aqueous solubility of the compound at pH 7.4; conditions: buffer
[4] = molecular target: Sigma intracellular receptor 2 (Homo sapiens, UniProt Q5BJF2); experiment: Inhibition of sigma 2 receptor (unknown origin) assessed as binding constant
Sigma intracellular receptor 2, sequence (Q5BJF2 whole entry): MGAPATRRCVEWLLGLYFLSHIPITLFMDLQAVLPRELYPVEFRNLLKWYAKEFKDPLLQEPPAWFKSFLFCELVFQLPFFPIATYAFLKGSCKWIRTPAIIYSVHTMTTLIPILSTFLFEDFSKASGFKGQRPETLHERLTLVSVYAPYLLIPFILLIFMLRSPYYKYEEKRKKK

P2Y purinoceptor 14 = molecular target: T1, P2Y purinoceptor 14 (Homo sapiens, UniProt Q15391); experiment: cell-based
T1 sequence (Q15391 whole entry): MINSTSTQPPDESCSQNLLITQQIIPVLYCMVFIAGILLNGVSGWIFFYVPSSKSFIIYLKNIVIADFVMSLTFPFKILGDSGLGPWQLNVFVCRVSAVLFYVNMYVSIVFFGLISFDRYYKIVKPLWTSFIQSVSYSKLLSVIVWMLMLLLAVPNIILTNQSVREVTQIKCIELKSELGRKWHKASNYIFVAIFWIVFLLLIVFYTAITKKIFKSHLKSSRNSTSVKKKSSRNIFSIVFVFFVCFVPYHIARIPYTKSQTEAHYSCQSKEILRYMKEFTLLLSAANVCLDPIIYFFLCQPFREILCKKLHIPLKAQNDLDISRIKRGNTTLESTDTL
Description: Inhibition of fluorescent antagonist binding to human P2Y14R expressed in CHO cells preincubated for 30 mins followed by 6-amino-9-(2-carboxy-4-((6-(4-(4-(4-(4-(3-carboxy 6-(4-(trifluoromethyl)phenyl)naphthalen-1-yl)phenyl)piperidin-1-yl)butyl)-1H-1,2,3-triazol-1-yl)hexyl)carbamoyl)phenyl)-3-iminio-5-sulfo-3H-xanthene-4-sulfonate addition and measured after 30 mins by BD FACSCalibur flow cytometry analysis

| Structure (SMILES) | logD [1] | solubility [3] [µg/mL] | IC50 (P2Y purinoceptor 14) [µM] | also measured |
| --- | --- | --- | --- | --- |
| O=C(O)c1cc(-c2ccc(C34CCN(CC3)CC4)cc2)c2ccc(-c3ccc(C(F)(F)F)cc3)cc2c1 | 4.2 | 0.55 (≈ 1.1 µM) |  | solubility ([2]; buffer): 1.5 µg/mL (≈ 2.99 µM) |
| N[C@H]1C[C@@H](C(=O)O)[C@H](c2ccc(-c3cc(C(=O)O)cc4cc(-c5ccc(C(F)(F)F)cc5)ccc34)cc2)C1 | -0.57 |  |  |  |
| O=C(O)c1cc(-c2ccc(C3(O)[C@H]4CC[C@H]3CN(Cc3ccccc3)C4)cc2)c2ccc(-c3ccc(C(F)(F)F)cc3)cc2c1 (stereo partly drawn) | 3.3 | 0.14 (≈ 0.23 µM) |  | solubility ([2]; buffer): 0.48 µg/mL (≈ 0.79 µM) |
| N[C@@H]1C[C@H](CO)[C@@H](c2ccc(-c3cc(C(=O)O)cc4cc(-c5ccc(C(F)(F)F)cc5)ccc34)cc2)C1 |  |  |  | Ki [4]: 1 µM |
| O=C(O)c1cc(-c2ccc(C34CCNCC3C4(F)F)cc2)c2ccc(-c3ccc(C(F)(F)F)cc3)cc2c1 (racemic) | 2.7 |  |  |  |
| O=C(O)c1cc(-c2ccc(C3[C@H]4CC[C@H]3CNC4)cc2)c2ccc(-c3ccc(C(F)(F)F)cc3)cc2c1 (stereo partly drawn) | 3 | 0.16 (≈ 0.319 µM) | 0.696 | solubility ([2]; buffer): 0.32 µg/mL (≈ 0.638 µM) |
| N[C@H]1C[C@@H](C(=O)O)C[C@@H]1c1ccc(-c2cc(C(=O)O)cc3cc(-c4ccc(C(F)(F)F)cc4)ccc23)cc1 |  |  | 0.269 |  |
| CC1CNCCC1c1ccc(-c2cc(C(=O)O)cc3cc(-c4ccc(C(F)(F)F)cc4)ccc23)cc1 (stereo not drawn) | 2.8 |  |  |  |
| O=C(O)c1cc(-c2ccc([C@@]3(O)C[C@H]4CC[C@@H](C3)N4)cc2)c2ccc(-c3ccc(C(F)(F)F)cc3)cc2c1 | 1.2 |  |  |  |
| O=C(O)c1cc(-c2ccc(C34CCNCC3C4)cc2)c2ccc(-c3ccc(C(F)(F)F)cc3)cc2c1 (racemic) | 2.4 | 0.17 (≈ 0.349 µM) | 0.0455 | solubility ([2]; aqueous medium): 1.32 µg/mL (≈ 2.71 µM) |
| N[C@@H]1C[C@H](CO)C[C@H]1c1ccc(-c2cc(C(=O)O)cc3cc(-c4ccc(C(F)(F)F)cc4)ccc23)cc1 | 1.1 |  |  |  |
| O=C(O)c1cc(-c2ccc(C3CC4CCC3CN4)cc2)c2ccc(-c3ccc(C(F)(F)F)cc3)cc2c1 (stereo not drawn) | 1.7 |  | 0.0251 |  |
| CC(=O)N1C[C@@H]2C[C@H]1C[C@H]2c1ccc(-c2cc(C(=O)O)cc3cc(-c4ccc(C(F)(F)F)cc4)ccc23)cc1 (racemic) | 0.92 | 2.53 (≈ 4.78 µM) |  | solubility ([2]; buffer): 0.13 µg/mL (≈ 0.245 µM) |
| N[C@@H]1C[C@H](C(=O)O)C[C@H]1c1ccc(-c2cc(C(=O)O)cc3cc(-c4ccc(C(F)(F)F)cc4)ccc23)cc1 | -0.48 |  |  |  |
| N[C@@H]1C[C@H](C(=O)O)[C@@H](c2ccc(-c3cc(C(=O)O)cc4cc(-c5ccc(C(F)(F)F)cc5)ccc34)cc2)C1 |  |  |  | Ki [4]: 2 µM |
| O=C(O)c1cc(-c2ccc([C@H]3CCN[C@@H]4C[C@H]34)cc2)c2ccc(-c3ccc(C(F)(F)F)cc3)cc2c1 (relative stereo) | 2.6 | 0.51 (≈ 1.05 µM) |  | solubility ([2]; aqueous medium): 0.1 µg/mL (≈ 0.205 µM) |
| O=C(O)c1cc(-c2ccc(C3=CC4CCC(C3)N4)cc2)c2ccc(-c3ccc(C(F)(F)F)cc3)cc2c1 (racemic) | 2.3 |  |  |  |
| CC(=O)N1C[C@H]2C[C@@H]1C[C@@H]2c1ccc(-c2cc(C(=O)O)cc3cc(-c4ccc(C(F)(F)F)cc4)ccc23)cc1 | 0.92 |  | 0.0993 |  |
| CCOC(=O)N1C[C@H]2C[C@@H]1C[C@@H]2c1ccc(-c2cc(C(=O)O)cc3cc(-c4ccc(C(F)(F)F)cc4)ccc23)cc1 |  |  | 0.442 |  |
| O=C(O)c1cc(-c2ccc([C@]3(O)C[C@H]4CC[C@@H]3CN4)cc2)c2ccc(-c3ccc(C(F)(F)F)cc3)cc2c1 (racemic) | 0.74 |  | 0.114 |  |
| O=C(O)c1cc(-c2ccc([C@@]3(O)C[C@H]4CC[C@@H]3CN4)cc2)c2ccc(-c3ccc(C(F)(F)F)cc3)cc2c1 (racemic) | 0.96 |  | 0.0156 |  |
| O=C(O)c1cc(-c2ccc([C@@H]3CCN[C@@H]4C[C@@H]43)cc2)c2ccc(-c3ccc(C(F)(F)F)cc3)cc2c1 (racemic) | 1.8 | 0.05 (≈ 0.103 µM) |  | solubility ([2]; buffer): 0.24 µg/mL (≈ 0.492 µM) |
| CC1CC(c2ccc(-c3cc(C(=O)O)cc4cc(-c5ccc(C(F)(F)F)cc5)ccc34)cc2)CCN1 (stereo not drawn) | 2.1 |  |  |  |
